# From ChEMBL document CHEMBL4145458, “Natural compounds and combination therapy in colorectal cancer treatment” (2018)
# Tests used:
# Type in all cases: functional
# Homo sapiens [1] = experiment: Upregulation of cleaved caspase-3 levels in malignant hepatic tissue of cancer patient at 5 g/day, po administered for 10 to 21 days by immunohistochemistry relative to control
# Homo sapiens [2] = experiment: Reduction in tumor cell proliferation in colorectal cancer patient at 0.5 to 1 g/day, po administered 8 times per day for 8 days by Ki-67 staining-based microscopic method relative to control; set-up: scale not given: the % may be the effect or the level left
# [3] = Antitumor activity against human TC118 cells xenografted in Swiss nu/nu mouse assessed as tumor growth inhibition at 150 mg/kg, ip qd for 5 days in presence of 5-FU; conditions: 120 h, read-out: TGI
# Homo sapiens [4] = experiment: Induction of apoptosis in tumor of colorectal cancer patient at 200 mg/day, po administered for 14 days relative to control
# Homo sapiens [5] = experiment: Reduction in aberrant crypt foci number in colorectal cancer patient at 4 g/day, po administered 30 days relative to control; set-up: scale not given: the % may be the effect or the level left
# CT26 = experiment: Antitumor activity against mouse CT26 cells implanted in BALB/c mouse at 1 mg/kg, po qd administered through oral gavage for 15 days in presence of cisplatin relative to control
structure (smiles),measurement,setting,value
Oc1ccc(/C=C/c2cc(O)cc(O)c2)cc1 [RESVERATROL],Activity,Homo sapiens [1],39%
same,Activity,Homo sapiens [2],5%
CC(C)=CCC/C(C)=C/CO [GERANIOL],inhibition in vivo at 150 mg/kg,[3],≤ 83%
C[C@H]1[C@H](OC(=O)CCC(=O)O)O[C@@H]2O[C@@]3(C)CC[C@H]4[C@H](C)CC[C@@H]1[C@@]24OO3 [ARTESUNATE],Activity,Homo sapiens [4],13%
COc1cc(/C=C/C(=O)CC(=O)/C=C/c2ccc(O)c(OC)c2)ccc1O [CURCUMIN],Activity,Homo sapiens [5],40%
O=C(/C=C/c1ccc(O)cc1)c1ccc(O)cc1O [ISOLIQUIRITIGENIN],Activity,CT26,79%
